The subject of data set [1] is delta-E Torsin1a localization in Flp-In T-REx 293 cells expressing EGFP-delta-E Torsin1a. In words: delta-E Torsin1a mis-localization assay (high-content imaging, % cells with EGFP puncta). The conditions noted are these: delta-E cell line; for percentage of cells with punctate EGFP-Torsin1a signal: MG132 10 μM, PBA 20 mM. The format is cell-based, human. The method, then:
To limit variation in expression levels associated with random integration or transient expression, single copies of either WT or delta-E human TOR1A cDNAs with N-terminal EGFP fusions were inserted at the FRT site in Flp-In™ T-Rex™ 293 cells (Thermo Fisher Scientific #R780-07) via flippase recombinase-mediated cassette exchange according to the manufacturer's recommended protocols.
The cells were maintained at 37° C./5% CO2. All experiments were performed on cells with fewer than 5 passages.
Torsin1a expression was also controlled by tetracycline induction to avoid selective pressure modifying the cellular phenotypes. […] The mutant phenotype was measured as the percentage of cells with one or more EGFP puncta using automated high-content imaging analysis (see infra).
The image analysis algorithm was developed using the Cellomics ArrayScan V CompartmentAnalysisV2 protocol. Hoechst's nuclear staining (Ch1: excitation 350 nm; emission 461 nm) was used for focusing and for cell identification by nuclear size, shape, and intensity. […] Detected cells were gated according to nuclear area, length-to-width ratio, and perimeter-to-area ratio. For the purpose of analysis, cell bodies were defined by a radius of 10 μm from the outer edge of the defined nucleus. Overlapping cells were automatically segmented according to the Cellomics ArrayScanV CompartmentAnalysisV2 object segmentation feature. EGFP fluorescence (Ch2: excitation 488 nm; emission 509 nm) was used for puncta detection. […] Torsin1a puncta were identified using the spot detection feature of the Compartmental AnalysisV2 protocol. The percentage of cells containing one or more puncta was used as the primary metric in this assay.
(§1) In order to test this model directly, the delta-E Torsin1a cell line was treated with compounds targeting the eIF2-alpha signaling pathway (FIG. 2). […] The following day, serial drug dilutions were prepared at 2× final concentration in assay media containing 10 μg/mL tetracycline and 30 μL of the drug/tetracycline mixture was added to the appropriate wells, while control wells received 30 μL of assay media alone or assay media+10 μg/mL tetracycline (final tetracycline concentration for all wells except negative controls: 5 μg/mL). Cells were then incubated at 37° C./5% CO^2 for 48 hours and fixed, permeabilized, Hoechst stained, and imaged as described above. The range of the Torsin1a localization effect was normalized to the percentage of cells with puncta in vehicle-treated delta-E cell line as the maximum and that in WT cell line as the minimum (FIG. 2, panels c-h). Cell count and EGFP-Torsin1a expression were normalized to their respective values in the vehicle-treated delta-E cell line as the maximum. All dose response data are the average of 4 independent experiments per dose. Untreated control data used for normalization are the average of 24 independent experiments.

Data set [2] has as its system WT Torsin1a localization in Flp-In T-REx 293 cells expressing EGFP-WT Torsin1a. In words: Torsin1a localization assay in WT Torsin1a-expressing assay cell line. The format is cell-based, human. Conditions: WT cell line; MG132 10 μM, PBA 20 mM. From the text: To develop an assay capable of detecting conditions that correct a dystonia cellular phenotype, two human cell lines were generated that stably expressed EGFP-tagged human wild-type Torsin 1A, or delta-E Torsin1a, from a single cDNA copy integrated at a defined genomic site (FIG. 1, panel 1).
To limit variation in expression levels associated with random integration or transient expression, single copies of either WT or delta-E human TOR1A cDNAs with N-terminal EGFP fusions were inserted at the FRT site in Flp-In™ T-Rex™ 293 cells (Thermo Fisher Scientific #R780-07) via flippase recombinase-mediated cassette exchange according to the manufacturer's recommended protocols. This system includes an inducible expression feature (TetON) that avoids selective pressure for potential toxic effects of chronic expression of mutant proteins (FIG. 1, panel 1). […]
This approach provides control over expression levels, avoiding the wide variation typically seen with random genomic integration or transient expression approaches. […] The mutant phenotype was measured as the percentage of cells with one or more EGFP puncta using automated high-content imaging analysis (see infra).
Development and validation of the high-content image analysis and assay performance under high-throughput screening conditions is presented in FIG. 9. […] Automated exposure times for each plate were determined by setting a target saturation of 25% in channel 1 in wells containing tetracycline-induced delta-E cells. Detected cells were gated according to nuclear area, length-to-width ratio, and perimeter-to-area ratio. […] EGFP fluorescence (Ch2: excitation 488 nm; emission 509 nm) was used for puncta detection. Automated exposure times for each plate were determined by setting a target saturation of 35% in channel 2 in wells containing induced delta-E cells. […]

Data set [3] has as its system Flp-In T-REx 293 cells expressing delta-E Torsin1a. As to the kind of experiment: Cytotoxicity (cell count, cellular morphology) in the Torsin1a assay cell line. The class given is cell-based, human. Conditions: at effective concentrations. The method, then:
as §1
Efficacy is calculated as the magnitude of the pathology correction relative to the mutant Torsin1a pathology. For example an efficacy=−100% would be equivalent to the WT TorsinA phenotype, and 0% would be equivalent to the Mutant TorsinA phenotype. CCv2 refers to the dose response Curve Class annotation, and AC refers to Active Concentration.

Data set [4] deals with homozygous DYT1 (delta-E Torsin1a) knock-in mice. In words: Perinatal survival of homozygous DYT1 knock-in mice after in utero exposure. The format is in vivo, mouse. The method, then: The findings above support a role for the eIF2-alpha signaling pathway in normalizing in vitro cellular phenotypes related to the DYT1 genotype. Next, the effect of targeting eIF2-alpha signaling on the deleterious consequences of the DYT1 TorsinA mutation was determined in vivo. Etiological mouse models of DYT1 dystonia have not had robust dystonic phenotypes. (Tanabe, L. M., et al., (2012) PloS One 7, e32245; Camargos, S. et al., (2008) Lancet. Neurol. 7, 207-15; Seibler, P. et al. (2008) Lancet. Neurol. 7, 380-1.) Nonetheless, another deleterious genotype-dependent effect of the mutation on the animal-neonatal lethality of homozygous delGAG knock-in mice—facilitated interrogation of the impact of eIF2-alpha targeting in vivo (FIG. 4a). (Seibler, P. et al. (2008) Lancet. Neurol. 7, 380-1; Goodchild, R. E., et al, (2005) Neuron 48, 923-32.)
Pairs of heterozygous delta-E Torsin1a knock-in breeders (courtesy of Dr. W. Dauer, University of Michigan) were randomly assigned to vehicle or salubrinal treatment groups. Starting 10 days after breeding cages were established, each female mouse was given a daily subcutaneous injection of vehicle or salubrinal at approximately 6 p.m. Cages were checked for new pups three times per day: morning (˜8 a.m.), early afternoon (˜2 p.m.), and during injections (˜6 p.m.). In order to minimize stress and the possibility of litter abandonment, mice with newborn pups were not given injections. Newborn pups were identified by marking limbs with a permanent laboratory marker, and tail samples were taken for genotyping at P0. At approximately P0.5, cages were checked again, and the status of each pup was recorded. If pups were first observed at the 8 am check, the 2 pm check was considered P0.5. If pups were first observed at the 2 pm or 6 pm checks, an additional check was performed at approximately midnight, and considered P0.5. Mortality was also tracked the following day, after which time identifying marks were predominately washed off or obscured by fur. […]

Entries after “also recorded” stand apart in the source; their conditions may differ. Peptide text beside a SMILES is read from it. * marks the point of attachment. Cbz = O=C(OCc1ccccc1)*

As to `CC(C)C[C@@H](C=O)NC(=O)[C@H](CC(C)C)NC(=O)[C@H](CC(C)C)NC(=O)OCc1ccccc1` [MG132] (Cbz-Leu-Leu-Leu-aldehyde), the “percentage of cells with punctate EGFP-Torsin1a signal” value in data set [1] and in data set [2] was “significantly increased” each time.

As for `O=C(O)CCCc1ccccc1` [PBA, phenylbutyric acid], the “percentage of cells with punctate EGFP-Torsin1a signal” value in data set [1] and in data set [2] was “ameliorated the burden of cells with punctate pathology” each time.

Take `O=C(/C=C/c1ccccc1)NC(NC(=S)Nc1cccc2cccnc12)C(Cl)(Cl)Cl` (centres unmarked) [Salubrinal]: in data set [1] (Homo sapiens, Flp-In-T-REx-293, 48 hours, dose response, read-out: EC50 of normalization of delta-E Torsin1a localization), the EC50 turned out to be 2.12 µM. The “effect on delta-E Torsin1a localization (in words)” value in data set [1] (dose response) is given as “robust dose-dependent normalization”. Also, in data set [1] (normalized to vehicle delta-E (max) and WT (min)), the “efficacy on delta-E Torsin1a localization” value turned out to be 66.4%. Further, in data set [3], the “toxicity (cell count, cellular morphology; in words)” value is “without modifying steady-state EGFP-Torsin1a levels or significant toxicity”. Further, in data set [4] (3.3 mg/kg subcutaneous daily to pregnant dams from about embryonic day 10 through delivery, vs vehicle), the “perinatal survival / mortality of homozygous delta-E/delta-E pups” value is on record as “dramatically reduced the mortality; also recorded: improves perinatal survival”. The “mortality of wildtype or heterozygote pups” value in data set [4] (3.3 mg/kg subcutaneous daily to pregnant dams, treatment vs control) is given as “no mortality differences”. The “homozygous delta-E Torsin1a pups that survived through the second postnatal day” value in data set [4] (in utero exposure, no vehicle-treated homozygous pups survived the first postnatal day) is “two”.

Source of the values: patent US11285142B2, “Compositions and methods for identifying and treating dystonia disorders” (DUKE UNIVERSITY, priority 2015, dated 2022).
